One compound from patent US20230312529A1, “PYRIMIDINE SMALL-MOLECULE COMPOUND AND APPLICATION THEREOF” (WENZHOU MEDICAL UNIVERSITY, priority 2021, published 2023) can be followed below.

Molecules are shown by their SMILES.

Assay [1] deals with SAOS-2 osteosarcoma cells. Put plainly: MTT assay on osteosarcoma cells. It counts as cell-based. To be noted: Homo sapiens, 48 hours, read-out: Inhibitory activity (IC50) SAOS-2. As for the experimental part:
(§1) Logarithmic osteosarcoma cells were inoculated into a 96-well plate with a cell concentration of 1,500 cell/well for 6 hours by using MTT assay, and each well was filled with 200 μL of cell suspension. […] The samples were cultured in an incubator for 48 hours (37° C., 5% CO2), and 20 v L of MTT (3-(4,5-dimethylthiazole-2)-2,5-diphenyltetrazole) were added into each hole. After continuous culture for 4 hours, the culture solution was discarded by suction, and 200 v L of DMSO were added to each well. […] Calculation method of IC50 value: the IC50 values of the samples were calculated by curve fitting with GraphPad Prism software.
For orientation: Tetrazolium dyes change colour on reduction, which living cells bring about.

For assay [2], the system named is U2OS osteosarcoma cells. Put plainly: MTT assay on osteosarcoma cells. Format: cell-based. To be noted: Homo sapiens, 48 hours, read-out: Inhibitory activity (IC50) U2OS. As for the experimental part:
as §1

For assay [3], the system named is MNNG/HOS osteosarcoma cells. Put plainly: MTT assay on osteosarcoma cells. It counts as cell-based. To be noted: 48 hours, read-out: Inhibitory activity (IC50) MNNG/HOS. The method, then:
as §1

Assay [4] concerns MG-63 osteosarcoma cells. Put plainly: MTT assay on osteosarcoma cells. Format: cell-based. The note with it: Homo sapiens, 48 hours, read-out: Inhibitory activity (IC50) MG-63. As for the experimental part:
as §1

The subject of assay [5] is osteosarcoma cells MNNG. Put plainly: Metastasis (scratch migration) test of osteosarcoma cells. It counts as cell-based. To be noted: 0.1, 0.2 and 0.4 uM, compared with positive drugs. As for the experimental part:
(§2) The cells were washed with sterile PBS for three times, and basal medium containing 2.5 μL of TCS was added respectively. Photographs were taken at 0 hour, 24 hours and 48 hours under an inverted microscope, and migration distances were measured with Imag J software.

Assay [6] deals with osteosarcoma cells MG63. Described as above. It counts as cell-based. The note with it: 0.1, 0.2 and 0.4 uM, compared with positive drugs. The method, then:
as §2

For assay [7], the system named is PDGFR signaling pathway related proteins in MNNG cells. Put plainly: Western Blot of PDGFR signaling pathway protein phosphorylation. Format: cell-based. To be noted: 0.1, 0.2 and 0.4 uM, 48 hours. As for the experimental part: (§3) After pretreating the osteosarcoma cell line with the compound for 48 hours, the culture medium was sucked off, washed with PBS for 3 times, and the total protein was extracted after lysis. A phosphorylation level of the PDGFR signaling pathway related proteins was detected by Western Blot.
In general terms: A western blot detects proteins with antibodies after separation by electrophoresis.

The test system of assay [8] is PDGFR signaling pathway related proteins in MG63 cells. Described as above. It counts as cell-based. To be noted: 0.1, 0.2 and 0.4 uM, 48 hours. As for the experimental part: as §3
In assay [9] the test system is human cerebrovascular pericytes (HBVP). Put plainly: MTT assay on human neovascular cells. Format: cell-based.
For assay [10], the target named is FLT3 (Homo sapiens (Human), UniProt P36888). Put plainly: Caliper Mobility Shift kinase inhibition test. It counts as biochemical. To be noted: 100 nM; read-out: inhibitory rate on FLT3. The method, then: (§4) The method adopted in the test was Caliper Mobility Shift Assay, which was a detection platform based on the mobility detection technology of microfluidic chip technology. Test steps: 1.25× kinase reaction buffer (62.5 mmol/L HEPES, pH 7.5; 0.001875% Brij-35; 12.5 mmol/L MgCl2; 2.5 mM DTT) and kinase reaction stop solution (100 mmol/L HEPES, pH 7.5; 0.015% Brij-35; 0.2% Coating Reagent #3) were configured. […] Collected data was tested on Caliper to yield that inhibition ratio to kinase activity=(max−conversion)/(max−min)×100. “max” was DMSO control without adding compound, and “min” was low control. When IC50 was determined, each sample was provided with 10 dilutions, each with 2 multiple holes, and repeated for 3 times.

Assay [11] has as its target IKK β (Homo sapiens (Human), UniProt O14920). Put plainly: Caliper Mobility Shift kinase inhibition test. It counts as biochemical. As for the experimental part:
as §4

The target in assay [12] is ALK (Homo sapiens (Human), UniProt Q9UM73). Put plainly: Caliper Mobility Shift kinase inhibition test. Format: biochemical. As for the experimental part:
as §4

For assay [13], the system named is osteosarcoma cells MNNG. Put plainly: Adhesion test of osteosarcoma cells on fibronectin. It counts as cell-based. The note with it: 0.1, 0.2 and 0.4 uM, 48 hours, compared with positive drugs. The method, then:
(§5) Each well was dried, and added with 100 μL of 33% glacial acetic acid and the crystal violet was dissolved by shaking for 10 minutes. The absorbance was measured by a microplate reader at […], and the adhesion rate (%)=(OD value of tumor cells in the drug-added treated group−Hu FN OD value)/(OD value of untreated tumor cells−Hu FN OD value)×100%.

The subject of assay [14] is osteosarcoma cells MG63. Put plainly: Adhesion test of osteosarcoma cells on fibronectin. Format: cell-based. To be noted: 0.1, 0.2 and 0.4 uM, 48 hours, compared with positive drugs. The method, then:
as §5

Chain of FLT3 (P36888 27-993): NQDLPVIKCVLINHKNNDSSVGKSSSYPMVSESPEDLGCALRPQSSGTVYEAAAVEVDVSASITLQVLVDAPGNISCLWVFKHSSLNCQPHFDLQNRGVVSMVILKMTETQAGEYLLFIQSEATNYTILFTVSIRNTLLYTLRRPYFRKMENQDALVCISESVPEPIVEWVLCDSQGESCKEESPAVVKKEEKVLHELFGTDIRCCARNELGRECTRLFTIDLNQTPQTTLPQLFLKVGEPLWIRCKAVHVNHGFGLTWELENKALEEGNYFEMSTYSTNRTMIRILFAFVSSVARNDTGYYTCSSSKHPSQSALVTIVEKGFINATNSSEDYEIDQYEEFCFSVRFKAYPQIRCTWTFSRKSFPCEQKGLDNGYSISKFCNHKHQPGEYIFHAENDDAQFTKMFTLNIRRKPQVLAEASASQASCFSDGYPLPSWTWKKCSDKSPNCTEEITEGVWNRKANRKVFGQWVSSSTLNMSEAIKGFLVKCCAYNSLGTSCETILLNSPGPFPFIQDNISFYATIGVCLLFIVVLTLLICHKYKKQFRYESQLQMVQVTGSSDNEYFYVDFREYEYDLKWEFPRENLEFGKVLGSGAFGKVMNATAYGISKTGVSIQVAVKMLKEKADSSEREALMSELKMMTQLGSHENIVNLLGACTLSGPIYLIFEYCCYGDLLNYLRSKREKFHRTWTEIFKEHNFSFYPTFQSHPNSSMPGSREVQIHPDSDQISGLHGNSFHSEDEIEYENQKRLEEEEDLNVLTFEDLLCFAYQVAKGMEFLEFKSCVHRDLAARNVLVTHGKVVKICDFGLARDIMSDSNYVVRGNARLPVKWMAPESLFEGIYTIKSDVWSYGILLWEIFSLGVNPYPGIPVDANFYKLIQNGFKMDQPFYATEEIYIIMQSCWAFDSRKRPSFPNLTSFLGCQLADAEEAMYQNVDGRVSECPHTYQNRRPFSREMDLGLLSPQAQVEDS
Chain of IKK β (O14920 whole entry, species assumed): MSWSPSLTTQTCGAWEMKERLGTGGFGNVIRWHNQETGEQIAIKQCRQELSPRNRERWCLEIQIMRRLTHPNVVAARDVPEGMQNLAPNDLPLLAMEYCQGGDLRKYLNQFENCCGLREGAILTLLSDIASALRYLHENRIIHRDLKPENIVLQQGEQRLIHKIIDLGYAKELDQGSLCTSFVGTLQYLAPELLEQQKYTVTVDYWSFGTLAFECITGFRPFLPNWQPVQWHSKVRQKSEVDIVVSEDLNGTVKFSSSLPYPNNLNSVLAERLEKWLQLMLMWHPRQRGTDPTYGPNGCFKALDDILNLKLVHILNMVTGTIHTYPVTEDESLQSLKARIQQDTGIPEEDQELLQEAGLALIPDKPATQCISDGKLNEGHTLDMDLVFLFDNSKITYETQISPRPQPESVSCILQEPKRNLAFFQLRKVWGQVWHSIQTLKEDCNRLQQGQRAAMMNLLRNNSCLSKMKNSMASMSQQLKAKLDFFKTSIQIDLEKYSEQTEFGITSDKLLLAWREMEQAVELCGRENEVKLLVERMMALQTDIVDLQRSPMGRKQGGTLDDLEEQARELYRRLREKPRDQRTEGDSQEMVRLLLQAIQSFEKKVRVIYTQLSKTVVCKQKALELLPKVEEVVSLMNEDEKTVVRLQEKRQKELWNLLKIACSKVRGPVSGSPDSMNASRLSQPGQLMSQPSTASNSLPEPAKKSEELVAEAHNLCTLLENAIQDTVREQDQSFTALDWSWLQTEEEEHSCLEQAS
Chain of ALK (Q9UM73 19-1620, species assumed): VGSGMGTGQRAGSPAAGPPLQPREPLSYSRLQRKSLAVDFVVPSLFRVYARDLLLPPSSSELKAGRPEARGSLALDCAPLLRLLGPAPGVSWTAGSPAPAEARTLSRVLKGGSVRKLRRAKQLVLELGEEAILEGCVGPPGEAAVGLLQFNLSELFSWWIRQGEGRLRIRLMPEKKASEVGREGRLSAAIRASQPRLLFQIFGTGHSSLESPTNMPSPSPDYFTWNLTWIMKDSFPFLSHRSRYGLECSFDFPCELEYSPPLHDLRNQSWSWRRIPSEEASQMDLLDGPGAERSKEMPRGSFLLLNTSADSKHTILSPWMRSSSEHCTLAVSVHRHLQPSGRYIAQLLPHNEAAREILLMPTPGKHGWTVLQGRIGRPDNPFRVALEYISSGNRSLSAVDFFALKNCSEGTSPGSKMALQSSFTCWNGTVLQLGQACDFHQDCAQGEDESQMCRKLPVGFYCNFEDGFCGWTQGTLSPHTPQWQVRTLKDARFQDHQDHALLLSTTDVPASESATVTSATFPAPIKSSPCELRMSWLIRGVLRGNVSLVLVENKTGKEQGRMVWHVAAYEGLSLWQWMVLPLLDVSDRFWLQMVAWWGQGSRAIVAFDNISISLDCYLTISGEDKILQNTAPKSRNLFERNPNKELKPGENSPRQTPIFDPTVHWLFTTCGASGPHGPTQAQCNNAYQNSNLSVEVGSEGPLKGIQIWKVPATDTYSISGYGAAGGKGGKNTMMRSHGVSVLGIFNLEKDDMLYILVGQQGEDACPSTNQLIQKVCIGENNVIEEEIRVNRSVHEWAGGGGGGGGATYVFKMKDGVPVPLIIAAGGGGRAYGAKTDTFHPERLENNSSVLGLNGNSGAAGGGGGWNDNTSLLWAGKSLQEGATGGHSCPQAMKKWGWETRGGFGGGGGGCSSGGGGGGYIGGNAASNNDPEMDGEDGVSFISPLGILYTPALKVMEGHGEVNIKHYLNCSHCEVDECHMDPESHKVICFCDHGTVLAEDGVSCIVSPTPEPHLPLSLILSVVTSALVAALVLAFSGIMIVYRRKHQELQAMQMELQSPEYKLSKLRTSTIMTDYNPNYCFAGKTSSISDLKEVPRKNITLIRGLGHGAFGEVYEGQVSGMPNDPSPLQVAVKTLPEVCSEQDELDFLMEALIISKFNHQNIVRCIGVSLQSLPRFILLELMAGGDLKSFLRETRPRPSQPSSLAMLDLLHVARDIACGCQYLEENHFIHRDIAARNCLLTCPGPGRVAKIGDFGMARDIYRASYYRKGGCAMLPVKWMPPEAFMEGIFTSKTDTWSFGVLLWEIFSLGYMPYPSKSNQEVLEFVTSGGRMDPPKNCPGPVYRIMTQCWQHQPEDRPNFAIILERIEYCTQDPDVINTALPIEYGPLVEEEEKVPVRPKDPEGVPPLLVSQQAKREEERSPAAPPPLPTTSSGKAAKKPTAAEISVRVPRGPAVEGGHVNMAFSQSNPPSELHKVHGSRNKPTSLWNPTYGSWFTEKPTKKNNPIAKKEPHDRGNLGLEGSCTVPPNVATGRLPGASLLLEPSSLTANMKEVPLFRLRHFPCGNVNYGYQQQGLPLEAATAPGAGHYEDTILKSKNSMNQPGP

Consider `CCN1CCN(c2ccc(Nc3ncc(C)c(Nc4ccc5cn[nH]c5c4)n3)cc2OC)CC1` [Compound 6i, N^2-(4-(4-ethylpiperazine-1-yl)-3-methoxyphenyl)-N^4-(1H-indazol-6-yl)-5-methylpyrimidine-2,4-diamine], for which the IC50 came out at 370 ± 2 nM in assay [1]; 418 ± 17 nM in assay [2]; 1030 ± 80 nM in assay [3]; 438 ± 1 nM in [4]; 550 ± 98 nM in assay [9] (Homo sapiens, MTT, read-out: Inhibitory activity (IC50) HBVP); 694 nM in assay [11]. Also, in assay [12], the IC50 was 5 nM. The “inhibitory activity on metastasis” value in [5] and in assay [6] was “strong dose-dependent inhibitory activity” in each case. Also, the “inhibition of phosphorylation of signaling pathway proteins” value in assay [7] and in assay [8] was “strong dose-dependent inhibition” each time. Also, in [9] (compared with multiple positive drugs), the “inhibitory activity on HBVP (in words)” value is listed as “strong inhibitory activity”. Also, in assay [10], the inhibition at 0.1 µM came to 98.9%. In addition, the “inhibitory activity on adhesion” value in [13] and in assay [14] was “strong dose-dependent inhibitory activity” throughout.
